Measurements from PMC8711236 (Biochemistry, 2021).

Target: Cytochrome P450 3A4 (CYP3A4) (Homo sapiens, UniProt P08684)
Assay: UV-vis spectral equilibrium titration
Format: binding

Cytochrome P450 3A4 (CYP3A4), sequence (P08684 14-503): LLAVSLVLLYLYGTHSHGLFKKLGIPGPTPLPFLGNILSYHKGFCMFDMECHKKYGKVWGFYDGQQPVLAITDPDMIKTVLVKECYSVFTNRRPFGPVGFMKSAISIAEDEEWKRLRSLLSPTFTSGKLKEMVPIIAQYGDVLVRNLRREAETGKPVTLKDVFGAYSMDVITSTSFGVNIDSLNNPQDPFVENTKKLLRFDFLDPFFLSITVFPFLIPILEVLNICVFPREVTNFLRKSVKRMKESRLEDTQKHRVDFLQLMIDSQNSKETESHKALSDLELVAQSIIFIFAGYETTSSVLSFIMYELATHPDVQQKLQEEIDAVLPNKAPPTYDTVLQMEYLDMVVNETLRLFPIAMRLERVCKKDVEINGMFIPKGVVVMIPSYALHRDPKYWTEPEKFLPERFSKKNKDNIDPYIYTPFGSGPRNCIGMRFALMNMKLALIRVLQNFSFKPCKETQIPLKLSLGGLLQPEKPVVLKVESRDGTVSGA
Cytochrome P450 3A4 (CYP3A4), sequence (P00388 2-678 partner): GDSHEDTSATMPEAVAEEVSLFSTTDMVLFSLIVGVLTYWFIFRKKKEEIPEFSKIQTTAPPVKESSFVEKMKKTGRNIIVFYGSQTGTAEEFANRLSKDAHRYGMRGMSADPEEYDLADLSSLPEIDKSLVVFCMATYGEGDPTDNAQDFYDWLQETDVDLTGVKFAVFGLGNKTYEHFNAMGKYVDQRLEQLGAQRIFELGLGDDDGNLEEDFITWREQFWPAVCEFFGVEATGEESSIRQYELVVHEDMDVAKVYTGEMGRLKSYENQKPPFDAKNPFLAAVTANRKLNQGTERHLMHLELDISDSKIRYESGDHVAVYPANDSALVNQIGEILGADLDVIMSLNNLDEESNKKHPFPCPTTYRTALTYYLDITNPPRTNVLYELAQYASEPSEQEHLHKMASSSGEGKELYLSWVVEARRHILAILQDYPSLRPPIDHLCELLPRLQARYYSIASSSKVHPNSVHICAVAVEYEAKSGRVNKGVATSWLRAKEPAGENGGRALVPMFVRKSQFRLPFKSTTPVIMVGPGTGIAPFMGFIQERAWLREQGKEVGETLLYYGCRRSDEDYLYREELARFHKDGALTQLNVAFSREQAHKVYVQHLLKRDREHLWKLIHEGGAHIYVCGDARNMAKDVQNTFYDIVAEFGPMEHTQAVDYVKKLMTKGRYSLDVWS

**Q.** With `CC(=O)[C@H]1CC[C@H]2[C@@H]3CCC4=CC(=O)CC[C@]4(C)[C@H]3CC[C@]12C` [PRG, progesterone] as the molecule, how does the Kd read?
**A.** 35 µM
